System: MDA-MB-231 multicell spheroids, viability (%T/C)
Test: Anticancer human tumor MDA-MB-231 cell line growth inhibition [IpAb];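 note: viability read after seven days of drug exposure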;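 for viability, T/C: 100% = DMSO vehicle control viability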
Details: for IC50: curve of first compound; for viability, T/C: stronger effect = lower value; active = viability on the fitted dose curve at most 10% of control; inactive = the rest
Method in brief: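 Spheroids of 60% malignant cells, 25% HUVEC and 15% MSC were exposed to targeted agents combined with ipatasertib or abemaciclib. Doses started at or near clinical Cmax (10 microM when unknown) and fell in half-log steps.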

[1] = second compound 0.1 µM, first compound 0.0316 µM
[2] = second compound 0.1 µM, first compound 0.1 µM
[3] = second compound 0.1 µM, first compound 0.316 µM
[4] = second compound 0.1 µM, first compound 1 µM
[5] = second compound 0.1 µM, first compound 3.16 µM
[6] = second compound 0.1 µM, first compound 10 µM
[7] = second compound 0.316 µM, first compound 0.0316 µM
[8] = second compound 0.316 µM, first compound 0.1 µM
[9] = second compound 0.316 µM, first compound 0.316 µM
[10] = second compound 0.316 µM, first compound 1 µM
[11] = second compound 0.316 µM, first compound 3.16 µM
[12] = second compound 0.316 µM, first compound 10 µM
[13] = second compound 1 µM, first compound 0.0316 µM
[14] = second compound 1 µM, first compound 0.1 µM
[15] = second compound 1 µM, first compound 0.316 µM
[16] = second compound 1 µM, first compound 1 µM
[17] = second compound 1 µM, first compound 3.16 µM
[18] = second compound 1 µM, first compound 10 µM
[19] = second compound 3.16 µM, first compound 0.0316 µM
[20] = second compound 3.16 µM, first compound 0.1 µM
[21] = second compound 3.16 µM, first compound 0.316 µM
[22] = second compound 3.16 µM, first compound 1 µM
[23] = second compound 3.16 µM, first compound 3.16 µM
[24] = second compound 3.16 µM, first compound 10 µM
[25] = second compound 10 µM, first compound 0.0316 µM
[26] = second compound 10 µM, first compound 0.1 µM
[27] = second compound 10 µM, first compound 0.316 µM
[28] = second compound 10 µM, first compound 1 µM
[29] = second compound 10 µM, first compound 3.16 µM
[30] = second compound 10 µM, first compound 10 µM

C=CC(=O)N1CCN(c2nc(=O)n(-c3c(C)ccnc3C(C)C)c3nc(-c4c(O)cccc4F)c(F)cc23)C(C)C1 (stereo not given) + CC(C)NCC(C(=O)N1CCN(c2ncnc3c2C(C)CC3O)CC1)c1ccc(Cl)cc1
inactive: viability, T/C [1] 111% | viability, T/C [2] 113% | viability, T/C [3] 116% | viability, T/C [4] 129% | viability, T/C [5] 120% | viability, T/C [6] 78.3% | viability, T/C [7] 96.1% | viability, T/C [8] 97% | viability, T/C [9] 105% | viability, T/C [10] 111% | viability, T/C [11] 95.4% | viability, T/C [12] 64.4% | viability, T/C [13] 81.9% | viability, T/C [14] 79.8% | viability, T/C [15] 82.3% | viability, T/C [16] 86% | viability, T/C [17] 71% | viability, T/C [18] 52.6% | viability, T/C [19] 57.2% | viability, T/C [20] 68.6% | viability, T/C [21] 67% | viability, T/C [22] 67.5% | viability, T/C [23] 62.1% | viability, T/C [24] 44.5% | viability, T/C [25] 42.5% | viability, T/C [26] 45.9% | viability, T/C [27] 44.4% | viability, T/C [28] 42.7% | viability, T/C [29] 41.6% | viability, T/C [30] 32.1%
> 10000 nM: IC50 (second compound 0.1 µM) | IC50 (second compound 0.316 µM) | IC50 (second compound 1 µM) | IC50 (second compound 3.16 µM)
< 31.6 nM: IC50 (second compound 10 µM)

CC(C)(C)c1cnc(CSc2cnc(NC(=O)C3CCNCC3)s2)o1 + CC(C)NCC(C(=O)N1CCN(c2ncnc3c2C(C)CC3O)CC1)c1ccc(Cl)cc1
171 nM: IC50 (second compound 0.1 µM)
152 nM: IC50 (second compound 0.316 µM)
active: viability, T/C (second compound 0.1 µM, first compound 0.3 µM) 1.85% | viability, T/C (second compound 0.1 µM, first compound 0.949 µM) 1.02% | viability, T/C (second compound 0.1 µM, first compound 3 µM) 1.06% | viability, T/C (second compound 0.316 µM, first compound 0.3 µM) 1.35% | viability, T/C (second compound 0.316 µM, first compound 0.949 µM) 0.87% | viability, T/C (second compound 0.316 µM, first compound 3 µM) 0.98% | viability, T/C (second compound 1 µM, first compound 0.3 µM) 2.5% | viability, T/C (second compound 1 µM, first compound 0.949 µM) 0.85% | viability, T/C (second compound 1 µM, first compound 3 µM) 0.86% | viability, T/C (second compound 3.16 µM, first compound 0.3 µM) 1.57% | viability, T/C (second compound 3.16 µM, first compound 0.949 µM) 0.65% | viability, T/C (second compound 3.16 µM, first compound 3 µM) 0.78% | viability, T/C (second compound 10 µM, first compound 0.3 µM) 0.95% | viability, T/C (second compound 10 µM, first compound 0.949 µM) 0.79% | viability, T/C (second compound 10 µM, first compound 3 µM) 0.8%
< 9.49 nM: IC50 (second compound 10 µM)
140 nM: IC50 (second compound 1 µM)
inactive: viability, T/C (second compound 0.1 µM, first compound 0.00949 µM) 110% | viability, T/C (second compound 0.1 µM, first compound 0.03 µM) 115% | viability, T/C (second compound 0.1 µM, first compound 0.0949 µM) 101% | viability, T/C (second compound 0.316 µM, first compound 0.00949 µM) 94.5% | viability, T/C (second compound 0.316 µM, first compound 0.03 µM) 98.8% | viability, T/C (second compound 0.316 µM, first compound 0.0949 µM) 83.5% | viability, T/C (second compound 1 µM, first compound 0.00949 µM) 79.2% | viability, T/C (second compound 1 µM, first compound 0.03 µM) 84.8% | viability, T/C (second compound 1 µM, first compound 0.0949 µM) 74.4% | viability, T/C (second compound 3.16 µM, first compound 0.00949 µM) 61.1% | viability, T/C (second compound 3.16 µM, first compound 0.03 µM) 61.7% | viability, T/C (second compound 3.16 µM, first compound 0.0949 µM) 56.5% | viability, T/C (second compound 10 µM, first compound 0.00949 µM) 42.1% | viability, T/C (second compound 10 µM, first compound 0.03 µM) 43.8% | viability, T/C (second compound 10 µM, first compound 0.0949 µM) 35.1%
109 nM: IC50 (second compound 3.16 µM)

Cn1ncc(Cl)c1-c1cc(C(=O)NC(CN)Cc2cccc(F)c2)sc1Cl (stereo not given) + CC(C)NCC(C(=O)N1CCN(c2ncnc3c2C(C)CC3O)CC1)c1ccc(Cl)cc1
active: viability, T/C [6] 0.11% | viability, T/C [12] 0.12% | viability, T/C [18] 0.11% | viability, T/C [24] 0.34% | viability, T/C [30] 0.49%
< 31.6 nM: IC50 (second compound 10 µM)
471 nM: IC50 (second compound 3.16 µM)
1100 nM: IC50 (second compound 1 µM)
1270 nM: IC50 (second compound 0.316 µM)
1590 nM: IC50 (second compound 0.1 µM)
inactive: viability, T/C [1] 99.1% | viability, T/C [2] 88% | viability, T/C [3] 80.3% | viability, T/C [4] 61.8% | viability, T/C [5] 33% | viability, T/C [7] 70.7% | viability, T/C [8] 79.4% | viability, T/C [9] 71.2% | viability, T/C [10] 49% | viability, T/C [11] 34.3% | viability, T/C [13] 74.1% | viability, T/C [14] 71.9% | viability, T/C [15] 63.1% | viability, T/C [16] 50.6% | viability, T/C [17] 32.8% | viability, T/C [19] 57.3% | viability, T/C [20] 59.1% | viability, T/C [21] 49.7% | viability, T/C [22] 43% | viability, T/C [23] 33.6% | viability, T/C [25] 42.2% | viability, T/C [26] 41.1% | viability, T/C [27] 37.5% | viability, T/C [28] 37.5% | viability, T/C [29] 26.1%

Cn1nccc1Nc1nccc(-c2ccn(C(CO)c3ccc(Cl)c(F)c3)c(=O)c2)n1 (stereo not given) + CC(C)NCC(C(=O)N1CCN(c2ncnc3c2C(C)CC3O)CC1)c1ccc(Cl)cc1
45.9 nM: IC50 (second compound 0.316 µM)
inactive: viability, T/C [1] 64.3% | viability, T/C [2] 53.5% | viability, T/C [3] 48.7% | viability, T/C [4] 43.1% | viability, T/C [5] 25.2% | viability, T/C [6] 18.7% | viability, T/C [7] 52.8% | viability, T/C [8] 43.8% | viability, T/C [9] 38.1% | viability, T/C [10] 29.3% | viability, T/C [11] 23.5% | viability, T/C [12] 18% | viability, T/C [13] 38.7% | viability, T/C [14] 36.1% | viability, T/C [15] 32.2% | viability, T/C [16] 27.8% | viability, T/C [17] 16.3% | viability, T/C [18] 15.3% | viability, T/C [19] 34.3% | viability, T/C [20] 28.7% | viability, T/C [21] 27.1% | viability, T/C [22] 21.5% | viability, T/C [23] 12.9% | viability, T/C [25] 24.2% | viability, T/C [26] 22.8% | viability, T/C [27] 16.7% | viability, T/C [28] 14.9% | viability, T/C [29] 9%
< 31.6 nM: IC50 (second compound 1 µM) | IC50 (second compound 3.16 µM) | IC50 (second compound 10 µM)
259 nM: IC50 (second compound 0.1 µM)
active: viability, T/C [24] 10.4% | viability, T/C [30] 6.42%

Cn1ncnc1[C@H]1c2n[nH]c(=O)c3cc(F)cc(c23)N[C@@H]1c1ccc(F)cc1 + CC(C)NCC(C(=O)N1CCN(c2ncnc3c2C(C)CC3O)CC1)c1ccc(Cl)cc1
< 0.316 nM: IC50 (second compound 10 µM)
2.35 nM: IC50 (second compound 3.16 µM)
> 100 nM: IC50 (second compound 0.1 µM) | IC50 (second compound 0.316 µM) | IC50 (second compound 1 µM)
inactive: viability, T/C (second compound 0.1 µM, first compound 0.000316 µM) 96.6% | viability, T/C (second compound 0.1 µM, first compound 0.001 µM) 89.4% | viability, T/C (second compound 0.1 µM, first compound 0.00316 µM) 81.9% | viability, T/C (second compound 0.1 µM, first compound 0.01 µM) 78.9% | viability, T/C [1] 76.6% | viability, T/C [2] 73.1% | viability, T/C (second compound 0.316 µM, first compound 0.000316 µM) 83.9% | viability, T/C (second compound 0.316 µM, first compound 0.001 µM) 77% | viability, T/C (second compound 0.316 µM, first compound 0.00316 µM) 71.8% | viability, T/C (second compound 0.316 µM, first compound 0.01 µM) 70.1% | viability, T/C [7] 69.1% | viability, T/C [8] 62.1% | viability, T/C (second compound 1 µM, first compound 0.000316 µM) 70.4% | viability, T/C (second compound 1 µM, first compound 0.001 µM) 68.9% | viability, T/C (second compound 1 µM, first compound 0.00316 µM) 59.2% | viability, T/C (second compound 1 µM, first compound 0.01 µM) 58% | viability, T/C [13] 56.8% | viability, T/C [14] 56.5% | viability, T/C (second compound 3.16 µM, first compound 0.000316 µM) 54.6% | viability, T/C (second compound 3.16 µM, first compound 0.001 µM) 54.3% | viability, T/C (second compound 3.16 µM, first compound 0.00316 µM) 49.6% | viability, T/C (second compound 3.16 µM, first compound 0.01 µM) 44.9% | viability, T/C [19] 45.7% | viability, T/C [20] 47% | viability, T/C (second compound 10 µM, first compound 0.000316 µM) 42.3% | viability, T/C (second compound 10 µM, first compound 0.001 µM) 41% | viability, T/C (second compound 10 µM, first compound 0.00316 µM) 38.5% | viability, T/C (second compound 10 µM, first compound 0.01 µM) 33.8% | viability, T/C [25] 34.9% | viability, T/C [26] 34.1%
